Article PMC10400630, “Resensitizing multidrug-resistant Gram-negative bacteria to carbapenems and colistin using disulfiram” (Communications Biology, 2023)
Positions of bridges follow the written chain, without caps; N, C: chain ends. Non-standard residues stand in square brackets, D forms with d. Residues, ends and D or L forms follow the SMILES beside them. *: point of attachment. Heptanoyl(5-Me) = CCC(C)CCCC(=O)*; Dab = NCC[C@H](N)C(=O)O

Tests used:
E. coli CP131 (mcr-3) = tested on: T1, E. coli CP131 (mcr-3); assay: microbe, parasite or virus in culture; design: broth microdilution MIC of antibiotic alone (checkerboard assay); conditions: Escherichia coli; colistin alone
T1 construct: CP131 (mcr-3)
Source text: (§1) The fractional inhibitory concentration index (FICI) value was used to evaluate the drug interaction of two compounds (A and B) and calculated as the sum of FICIA and FICIB. […] To validate the potentiation, we further evaluated these combinations on several types of Gram-negative bacteria, including drug-sensitive strains, MCR-producing Enterobacterales and MBL-positive Enterobacteriaceae. […] These NDM-positive Gram-negative pathogens carry blaNDM-1 or blaNDM-5 gene and are meropenem-resistant with MICs of 16-32 µg/mL. […] To explore the synergistic bactericidal activity of this combination, time-dependent killing curves for different MCR-positive Gram-negative bacteria were also determined.

[1] = tested on: T2, K. pneumoniae D120 (mcr-8); assay: microbe, parasite or virus in culture; design: broth microdilution MIC of antibiotic alone (checkerboard assay); conditions: Klebsiella pneumoniae; colistin alone
T2 construct: D120 (mcr-8)
Source text: as §1

S. enterica ATCC 13076 = tested on: T3, S. enterica ATCC 13076; assay: microbe, parasite or virus in culture; design: broth microdilution MIC of antibiotic alone (checkerboard assay); conditions: Salmonella enterica, ATCC13076; colistin alone
T3 construct: ATCC 13076
Source text: as §1

E. coli ATCC 25922 = tested on: T4, E. coli ATCC 25922; assay: microbe, parasite or virus in culture; design: broth microdilution MIC of antibiotic alone (checkerboard assay); conditions: Escherichia coli, ATCC25922; colistin alone
T4 construct: ATCC 25922
Source text: as §1

E. coli B2 [2] = tested on: T5, E. coli B2; assay: microbe, parasite or virus in culture; design: broth microdilution MIC of antibiotic alone (checkerboard assay); conditions: Escherichia coli, antibiotic alone
T5 construct: B2
Source text: as §1

E. coli G92 (mcr-1) = tested on: T6, E. coli G92 (mcr-1); assay: microbe, parasite or virus in culture; design: broth microdilution MIC of antibiotic alone (checkerboard assay); conditions: Escherichia coli; colistin alone
T6 construct: G92 (mcr-1)
Source text: as §1

E. coli DH5α (PUC19) = tested on: T7, E. coli DH5α (PUC19); assay: microbe, parasite or virus in culture; design: broth microdilution MIC of antibiotic alone (checkerboard assay); conditions: Escherichia coli; colistin alone
T7 construct: DH5α (pUC19)
Source text: as §1

E. coli B2 [3] = tested on: T5, E. coli B2; assay: microbe, parasite or virus in culture; design: checkerboard broth microdilution, antibiotic alone, absorbance at 600 nm; conditions: antibiotic alone, without DSF; for MIC: Escherichia coli, B2
Source text: The fractional inhibitory concentration index (FICI) value was used to evaluate the drug interaction of two compounds (A and B) and calculated as the sum of FICIA and FICIB. […] To validate the potentiation, we further evaluated these combinations on several types of Gram-negative bacteria, including drug-sensitive strains, MCR-producing Enterobacterales and MBL-positive Enterobacteriaceae.

NDM-positive E. coli C3 = assay: microbe, parasite or virus in culture; design: MIC of meropenem alone before serial passage (passage 0); conditions: Escherichia coli, read-out: MICs of MEM, - DSF
Experimental: To learn more about whether the addition of DSF contributes to preventing the development of antibiotic resistance, we carried out the serial passage assays in an NDM- or MCR-positive bacteria after exposure to meropenem/colistin, DSF and their combination. […] The mutation prevention index (MPI) was determined via the equation of MPC/MIC, which represents the opening of the mutant selection window (MSW, concentration range between MIC and MPC). When the MSW is narrower, drug-resistant strains are less likely to develop.

NDM-5 = target: T8, NDM-5 (Escherichia coli, UniProt G3K399); assay: purified NDM-[…]) enzyme inhibition assay, absorbance at […] nm; assay type: biochemical
T8 construct: gene blaNDM-5
T8 sequence (G3K399 29-270 limits assumed): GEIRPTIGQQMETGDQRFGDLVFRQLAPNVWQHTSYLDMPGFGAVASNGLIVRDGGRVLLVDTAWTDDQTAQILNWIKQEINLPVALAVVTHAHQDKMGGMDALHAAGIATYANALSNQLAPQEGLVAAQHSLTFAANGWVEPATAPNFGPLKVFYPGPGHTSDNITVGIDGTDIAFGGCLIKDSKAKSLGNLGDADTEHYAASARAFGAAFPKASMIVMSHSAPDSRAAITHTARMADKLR

With CCC(C)CCCC(=O)N[C@@H](CCN)C(=O)N[C@H](C(=O)N[C@@H](CCN)C(=O)N[C@H]1CCNC(=O)[C@H]([C@@H](C)O)NC(=O)[C@H](CCN)NC(=O)[C@H](CCN)NC(=O)[C@H](CC(C)C)NC(=O)[C@@H](CC(C)C)NC(=O)[C@H](CCN)NC1=O)[C@@H](C)O (stereo partly drawn) [Colistin] ({Heptanoyl(5-Me)}-[Dab]T[Dab][Dab][Dab][dL]L[Dab][Dab]T; lactam 4-C) the MIC (E. coli CP131 (mcr-3)) was 2 µg/mL, the MIC [1] was 4 µg/mL and the MIC (S. enterica ATCC 13076) was 0.125 µg/mL. For the same compound, the MIC (E. coli ATCC 25922) was 0.5 µg/mL, the MIC (E. coli B2 [2]) was 8 µg/mL and the MIC (E. coli G92 (mcr-1)) was 4 µg/mL. The MIC (E. coli DH5α (PUC19)) was 0.25 µg/mL.
For C[C@H]1c2cccc(O)c2C(=O)C2=C(O)[C@]3(O)C(=O)C(C(N)=O)=C(O)[C@@H](N(C)C)[C@@H]3[C@@H](O)[C@@H]21 [Doxycycline], the MIC (E. coli B2 [3]) was 32 µg/mL.
Compound C[C@@H](O)[C@H]1C(=O)N2C(C(=O)O)=C(S[C@@H]3CN[C@H](C(=O)N(C)C)C3)[C@H](C)[C@H]12 [Meropenem] has an MIC (E. coli B2 [3]) of 32 µg/mL and an MIC (NDM-positive E. coli C3) of 8 µg/mL.
For CO[C@H]1/C=C/O[C@@]2(C)Oc3c(C)c(O)c4c(O)c(c(/C=N/N5CCN(C)CC5)c(O)c4c3C2=O)NC(=O)/C(C)=C\C=C\[C@H](C)[C@H](O)[C@@H](C)[C@@H](O)[C@@H](C)[C@H](OC(C)=O)[C@@H]1C [Rifampicin], the “MIC^a” value (E. coli B2 [3]) was 128 µg/mL.
Compound CN(C)c1cc(NC(=O)CNC(C)(C)C)c(O)c2c1C[C@H]1C[C@H]3[C@H](N(C)C)C(O)=C(C(N)=O)C(=O)[C@@]3(O)C(O)=C1C2=O [Tigecycline] has an MIC (E. coli B2 [3]) of 0.5 µg/mL.
CN[C@H](CC(C)C)C(=O)N[C@H]1C(=O)N[C@@H](CC(N)=O)C(=O)N[C@H]2C(=O)N[C@H]3C(=O)N[C@H](C(=O)N[C@H](C(=O)O)c4cc(O)cc(O)c4-c4cc3ccc4O)[C@H](O)c3ccc(c(Cl)c3)Oc3cc2cc(c3O[C@@H]2O[C@H](CO)[C@@H](O)[C@H](O)[C@H]2O[C@H]2C[C@](C)(N)[C@H](O)[C@H](C)O2)Oc2ccc(cc2Cl)[C@H]1O [Vancomycin] was tested, and the MIC (E. coli B2 [3]) was 64 µg/mL.
Work on CCN(CC)C(=S)SSC(=S)N(CC)CC [disulfiram] yielded an IC50 (NDM-5) of 95.5 µM.
